Test results published in patent publication US20170029823A1, “TRUNCATED TRK B AND TRK C ANTAGONISTS AND USES THEREOF” (priority 2015, published 2017).
Entries after “also recorded” stand apart in the source; their conditions may differ. One block for each molecule: values may come before it.

Key:
p-Erk and p-Akt = p-Erk and p-Akt immunohistochemistry in RHOP retinas after intravitreal injection; type: in vivo, mouse; details: post-natal day 18, 24 h after intravitreal PD98059, vs vehicle-injected eye
Method: (§1) Intravitreal injections were performed as follows. Briefly, mice were anesthetized with isoflurane, delivered through a gas anesthetic mask. The drugs were delivered using a Hamilton syringe. Injections were done using a surgical microscope to visualize the Hamilton entry into the vitreous chamber and confirm delivery of the injected solution. After the injection, the syringe was left in place for 30 sec and slowly withdrawn from the eye to prevent reflux. Experimental right eyes were injected with the test agents and control left eyes serve as internal control.
All intravitreal injections delivered 2 μl of the MAPK/ERK inhibitor PD98059 (10 mM stock) or the selective-TrkC antagonist 3F (1 mM stock). Control eyes were injected with 50% DMSO for PD98059 assays or 5% DMSO for the compound 3F assays. Intravitreal injections in wild-type or RHOP-mice were made at post-natal day 17. Experimental time points to measure ONL thinning were set at post-natal days 18, 22, 24 and 28. The end point for analyzing the effect of the compounds on the expression of p-Erk and p-Akt was at post-natal day 18 (24 hours after intravitreal injection). […]
For each experimental condition, a minimum of 6 images were acquired from 3 sections cut from different areas of the retina (n=3-4 retinas per group). The area of the profiles of the cells expressing p-Akt and p-Erk was measured using ImageJ software. […]

[1] = tested on: RHOP347S (RHOP) transgenic mouse model of retinitis pigmentosa; test: ONL thickness by FD-OCT after intravitreal injection; type: in vivo; details: PD98059 intravitreal at post-natal day 17
Method: as §1
All intravitreal injections delivered 2 μl of the MAPK/ERK inhibitor PD98059 (10 mM stock) or the selective-TrkC antagonist 3F (1 mM stock). Control eyes were injected with 50% DMSO for PD98059 assays or 5% DMSO for the compound 3F assays. Intravitreal injections in wild-type or RHOP-mice were made at post-natal day 17. Experimental time points to measure ONL thinning were set at post-natal days 18, 22, 24 and 28. The end point for analyzing the effect of the compounds on the expression of p-Erk and p-Akt was at post-natal day 18 (24 hours after intravitreal injection).
A noninvasive prototype spectrometer-based FD-OCT system was used to acquire the retinal images. FD-OCT is a noninvasive method that allows time-kinetic studies in the same animal, with axial resolution in tissue nominally better than 4 μm and repeatability of the measurements from B-scans better than 1 μm. Data acquisition was performed using custom software written in C++ for rapid frame grabbing, processing, and display of two-dimensional images. Manual segmentations were used to measure the thicknesses of the mice retinas. Mice were anesthetized using isoflurane/O2 and placed on a platform, and the head was oriented to an angle at which the eye was properly aligned to the optical beam. The pupils were dilated with a topical solution (atropine sulfate 1%; Alcon, Fort Worth, Tex.). Refraction of light at the cornea was cancelled by placing over the eye a generic artificial tear gel. Alignment of the optical system to the […] retina required a few minutes and was followed by rapid acquisition of data (about 5 s/vol). During retinal scanning, three volumes were acquired in different sectors of the retina containing the ON head as landmark.
After processing, three B-scans were randomly selected from each volume. The retinal thickness measurements were performed with Matlab software using the saved data. In each B-scan, the thickness of the nerve fiber layer (NFL)—ganglion cell layer (GCL)—inner plexiform layer (IPL), hereafter referred to as NGI and outer nuclear layer (ONL) was measured at three adjacent points. […]

TNF-α = TNF-α mRNA (PCR) and protein (ELISA) in rMC-1 cells; type: cell-based; details: NT-3 (10 nM) or LPS (1 μg/ml) for 6 hrs
Description: FIG. 7A-FIG. 7D illustrates development and validation of a TrkC.T1 inhibitor that prevents TrkC.T1-mediated induction of TNF-α FIG. 7A The mRNA levels of TrkC-FL and TrkC.T1 were quantified by PCR, after infection with lentivirus pLKO.Scr (scrambled control) or with pLKO.1 (expressing a unique shRNA (SEQ ID NO: 1) targeting TrkC.T1 mRNA specifically). Results are normalized to reference GAPDH mRNA. Data are expressed as the mean+SEM; n=3 independent experiments each in triplicate. […] FIG. 7B and FIG. 7C In rMC-1 cells the levels of TNF-α mRNA and protein were quantified by PCR or by ELISA after infection with pLKO.1TrkC.T1 or pLKOScr control. NT-3 and LPS treatment induce TNF-α and pLKO.1 prevents it. Data are standardized to untreated control. Average±sem, n=3 independent experiments each in triplicate. FIG. 7D In spinal cord of ALS G93A versus wild type mice the levels of TNF-α mRNA were assessed by quantitative PCR. Results were normalized to GAPDH. Data are expressed as the mean±SEM n=8 independent spinal cords per group. A-F t-test was applied for statistical analysis. * p<0.05, ** p<0.01 versus control. Stars with brackets indicate differences between the indicated groups.
In rMC-1 cells treatment with NT-3 (10 nM) or LPS (1 μg/ml) for 6 hrs increases TNF-α mRNA (FIG. 7B) and protein (FIG. 7C).

[2] = target: T1, endogenous TrkC.T1 in rMC-1 cells (Rattus norvegicus, UniProt Q03351); test: p-Erk and p-Akt western blot after NT-3 stimulation in rMC-1 cells; type: cell-based; details: rMC-1 infected and rMC-1 wild-type cells, 4 nM NT-3 for 10 min
T1 construct: endogenous TrkC.T1 mRNA in r-MC-1 cells was silenced; endogenous in cells; host or cells: rMC-1 (Müller glial cell line)
Method: (§2) FIG. 15A-FIG. 15D illustrates TrkC.T1 directly activates MAPK/Erk in Müller cells. Representative western blots showing the levels of TrkC-FL (140 KDa), TrkC.T1 (110 kDa), p-Erk 1/2 (44 and 42 KDa) and p-Akt (60 KDa) in HEK293 cell expression system and rMC-1 cells, with or without stimulation of 4 nM NT-3 for 10 min. […] FIG. 15B, FIG. 15D Densitometric quantification of p-Erk and p-Akt signal standardized to untreated controls (arbitrary value of 1). The data represent relative protein levels±SEM. n=3 independent experiments. * p<0.05, ** p<0.01 and ***p<0.001.
A short hairpin RNA (shRNA) specifically targeting a unique 3′ sequence of the TrkC.T1 mRNA was designed using the DSIR algorithm. The TrkC.T1-targeting shRNA sequence […] (SEQ ID NO: 1), or a scrambled control sequence […] […] TrkC.T1-specific depletion was determined by real-time quantitative PCR and by Western blotting.
(§3) All cells types were serum-starved for 1 hour. […]
(§4) Whole retinas either from culture or freshly dissected were collected and added to 200 μL lysis buffer (20 mM Tris-HCl pH 7.5, 137 mM NaCl, 2 mM EDTA, 1% Nonidet P-40) containing a protease inhibitor cocktail (Roche). […] Protein quantities were assessed using the Bradford assay (BioRad), and 40 μg of total protein was mixed with Laemmli buffer, boiled for 5 minutes and loaded onto 10% gels. […] Blots were scanned and quantified using ImageJ software. […]

TrkC.T1 = target: T2, TrkC.T1 (Rattus norvegicus, UniProt Q03351); test: p-Erk and p-Akt western blot after NT-3 stimulation in 293-TrkC.T1 cells; type: cell-based; details: non-infected 293-TrkC.T1 cells, NT-3 4 nM for 10 min
T2 construct: expressed in transfected cells; host or cells: HEK293 (stably transfected subclone 293-TrkC.T1)
Method: as §2
(§5) HEK293 cells were transfected with human full-length TrkC cDNA (293-TrkC-FL) or with rat TrkC.T1 cDNA (293-TrkC.T1). The cells are stably transfected subclones that express high levels of TrkC-FL or TrkC.T1 receptors and are respectively grown under drug selection (0.5 mg/ml G418 or 1 mg/ml Puromycin).
as §3, §4

TrkC-FL = target: T3, TrkC-FL (Homo sapiens, UniProt Q16288); test: p-Erk and p-Akt western blot after NT-3 stimulation in 293-TrkC-FL cells; type: cell-based; details: NT-3 4 nM for 10 min
T3 construct: transfected with human full-length TrkC cDNA (293-TrkC-FL); expressed in transfected cells; host or cells: HEK293 (stably transfected subclone 293-TrkC-FL)
Method: as §2, §5, §3, §4

[3] = target: rat TrkC.T1 expressed on HEK293 cells (293-TrkC.T1) (rat) (UniProt Q03351); test: cell-based or functional assay
[4] = target: human full-length TrkC expressed on HEK293 cells (293-TrkC-FL) (human) (UniProt Q16288); test: cell-based or functional assay
Sequence of human full-length TrkC expressed on HEK293 cells (293-TrkC-FL) (human) (Q16288 32-839): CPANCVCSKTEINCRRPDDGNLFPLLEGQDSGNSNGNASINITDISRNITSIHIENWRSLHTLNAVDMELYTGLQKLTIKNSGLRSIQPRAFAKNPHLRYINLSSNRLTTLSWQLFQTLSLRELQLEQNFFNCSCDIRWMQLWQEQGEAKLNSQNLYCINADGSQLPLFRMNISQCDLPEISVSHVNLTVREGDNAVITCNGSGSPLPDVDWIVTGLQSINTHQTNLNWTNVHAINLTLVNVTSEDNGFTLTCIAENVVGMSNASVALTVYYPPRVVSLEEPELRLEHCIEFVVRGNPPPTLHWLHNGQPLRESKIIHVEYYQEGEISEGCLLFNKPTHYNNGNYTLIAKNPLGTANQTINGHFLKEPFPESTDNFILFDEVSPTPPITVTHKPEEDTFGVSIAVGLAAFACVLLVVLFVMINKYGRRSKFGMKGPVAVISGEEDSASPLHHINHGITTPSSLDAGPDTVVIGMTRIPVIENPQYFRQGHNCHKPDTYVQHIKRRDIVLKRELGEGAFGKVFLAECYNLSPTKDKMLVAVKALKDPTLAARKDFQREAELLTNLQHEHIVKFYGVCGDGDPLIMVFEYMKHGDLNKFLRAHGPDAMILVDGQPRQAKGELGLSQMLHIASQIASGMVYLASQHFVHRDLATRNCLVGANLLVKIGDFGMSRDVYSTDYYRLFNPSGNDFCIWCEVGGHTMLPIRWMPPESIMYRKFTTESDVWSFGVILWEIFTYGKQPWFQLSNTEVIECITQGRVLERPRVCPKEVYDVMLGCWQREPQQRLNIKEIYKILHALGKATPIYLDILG

T3 sequence (Q16288 32-839): as above
Sequence of rat TrkC.T1 expressed on HEK293 cells (293-TrkC.T1) (rat) (Q03351 32-864): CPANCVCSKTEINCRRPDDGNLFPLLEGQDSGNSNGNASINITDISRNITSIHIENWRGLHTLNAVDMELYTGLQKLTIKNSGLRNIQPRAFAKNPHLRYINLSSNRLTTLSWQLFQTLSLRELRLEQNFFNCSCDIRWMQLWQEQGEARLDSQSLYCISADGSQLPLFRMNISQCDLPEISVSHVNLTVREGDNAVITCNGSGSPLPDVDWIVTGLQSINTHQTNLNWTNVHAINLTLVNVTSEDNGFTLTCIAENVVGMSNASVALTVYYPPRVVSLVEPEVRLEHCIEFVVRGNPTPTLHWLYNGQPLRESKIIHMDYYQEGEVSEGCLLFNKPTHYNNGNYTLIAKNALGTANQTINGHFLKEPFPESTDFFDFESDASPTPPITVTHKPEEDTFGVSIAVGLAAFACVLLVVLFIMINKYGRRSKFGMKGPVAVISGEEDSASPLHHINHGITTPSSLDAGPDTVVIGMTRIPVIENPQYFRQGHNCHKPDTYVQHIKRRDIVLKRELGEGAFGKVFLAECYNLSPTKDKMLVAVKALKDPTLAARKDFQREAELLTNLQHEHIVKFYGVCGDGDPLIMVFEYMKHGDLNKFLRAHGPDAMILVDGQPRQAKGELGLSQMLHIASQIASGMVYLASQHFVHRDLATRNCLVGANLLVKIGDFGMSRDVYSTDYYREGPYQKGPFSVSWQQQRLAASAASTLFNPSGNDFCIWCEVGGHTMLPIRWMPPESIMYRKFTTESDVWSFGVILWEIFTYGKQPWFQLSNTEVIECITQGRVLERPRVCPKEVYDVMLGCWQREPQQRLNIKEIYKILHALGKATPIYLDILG
T1 sequence (Q03351 32-612 isoform Q03351-5 limits assumed): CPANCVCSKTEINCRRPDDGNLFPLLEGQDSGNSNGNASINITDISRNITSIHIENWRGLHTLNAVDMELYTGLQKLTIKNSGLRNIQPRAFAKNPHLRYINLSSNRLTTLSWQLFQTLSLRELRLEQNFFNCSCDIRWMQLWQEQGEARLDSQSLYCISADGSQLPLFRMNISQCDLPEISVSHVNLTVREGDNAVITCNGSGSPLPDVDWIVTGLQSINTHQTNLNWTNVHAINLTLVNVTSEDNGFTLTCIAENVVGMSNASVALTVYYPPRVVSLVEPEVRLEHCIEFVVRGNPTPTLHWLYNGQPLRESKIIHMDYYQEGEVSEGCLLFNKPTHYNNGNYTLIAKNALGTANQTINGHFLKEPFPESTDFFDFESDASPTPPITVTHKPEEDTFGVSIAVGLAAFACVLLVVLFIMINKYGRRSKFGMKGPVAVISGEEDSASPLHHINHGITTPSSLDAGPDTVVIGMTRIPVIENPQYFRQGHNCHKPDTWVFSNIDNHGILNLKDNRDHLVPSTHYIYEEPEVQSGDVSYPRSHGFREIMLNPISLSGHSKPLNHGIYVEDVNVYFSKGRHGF
T2 sequence (Q03351 32-612 isoform Q03351-5 limits assumed): as above

Molecule: COc1cccc(-c2cc(=O)c3ccccc3o2)c1N [PD98059]
block of p-Erk in Müller cells (p-Erk and p-Akt): 030%
p-Erk signal (immunoreactivity) in Müller cells (p-Erk and p-Akt): abolished; also recorded: reduced
ONL thickness vs vehicle-injected eye ([1]; RHOP mice, post-natal day 22 (did not reach significant values)): slightly bigger
ONL thickness vs vehicle-injected eye ([1]; RHOP mice, post-natal day 24): clear protective effect; also recorded: bigger
ONL thickness vs vehicle-injected eye ([1]; RHOP mice, post-natal day 28): still larger; also recorded: bigger
ONL thickness vs vehicle-injected eye ([1]; WT mice): No changes

levels of p-Akt [2]: did not change
increase in p-Erk levels (TrkC.T1): ~2 fold
increase in p-Akt levels (TrkC-FL): ~1.5
increase in p-Erk (TrkC-FL): ~2.5 fold
Molecule: neurotrophin-3 [NT-3]
TNF-α mRNA and protein (TNF-α): increases; also recorded: induce

p-Erk level (Western blot densitometry) after 4 nM NT-3 for 10 min, non-infected 293-TrkC.T1 cells [3]: 2 fold
p-Akt level (Western blot densitometry) after 4 nM NT-3 for 10 min [4]: 1.5 fold
p-Erk level (Western blot densitometry) after 4 nM NT-3 for 10 min [4]: 2.5 fold
B1: neurotrophin-3 (NT-3) (ligand, UniProt P20783 139-257, looked up)
chain: YAEHKSHRGEYSVCDSESLWVTDKSSAIDIRGHQVTVLGEIKTGNSPVKQYFYETRCKEARPVKNGCRGIDDKHWNSQCKTSQTYVRALTSENNKLVGWRWIRIDTSCVCALSRKIGRT
